{"source": "paper PMC9185959", "about": "“A nutraceutical product, extracted from Cannabis sativa, modulates voltage-gated sodium channel function” (Journal of Cannabis Research, 2022)", "experiment_in_all_cases": "automated planar patch-clamp, whole-cell peak current", "format_in_all_cases": "cell-based", "key": {"NaV1.2": {"biological_target": "T1, NaV1.2 (Homo sapiens, UniProt Q99250)", "T1 construct": "gene SCN2A; full-length channel, stably expressed in HEK293T cells; splice form and beta subunits not mentioned", "T1 sequence (Q99250 whole entry, canonical isoform)": "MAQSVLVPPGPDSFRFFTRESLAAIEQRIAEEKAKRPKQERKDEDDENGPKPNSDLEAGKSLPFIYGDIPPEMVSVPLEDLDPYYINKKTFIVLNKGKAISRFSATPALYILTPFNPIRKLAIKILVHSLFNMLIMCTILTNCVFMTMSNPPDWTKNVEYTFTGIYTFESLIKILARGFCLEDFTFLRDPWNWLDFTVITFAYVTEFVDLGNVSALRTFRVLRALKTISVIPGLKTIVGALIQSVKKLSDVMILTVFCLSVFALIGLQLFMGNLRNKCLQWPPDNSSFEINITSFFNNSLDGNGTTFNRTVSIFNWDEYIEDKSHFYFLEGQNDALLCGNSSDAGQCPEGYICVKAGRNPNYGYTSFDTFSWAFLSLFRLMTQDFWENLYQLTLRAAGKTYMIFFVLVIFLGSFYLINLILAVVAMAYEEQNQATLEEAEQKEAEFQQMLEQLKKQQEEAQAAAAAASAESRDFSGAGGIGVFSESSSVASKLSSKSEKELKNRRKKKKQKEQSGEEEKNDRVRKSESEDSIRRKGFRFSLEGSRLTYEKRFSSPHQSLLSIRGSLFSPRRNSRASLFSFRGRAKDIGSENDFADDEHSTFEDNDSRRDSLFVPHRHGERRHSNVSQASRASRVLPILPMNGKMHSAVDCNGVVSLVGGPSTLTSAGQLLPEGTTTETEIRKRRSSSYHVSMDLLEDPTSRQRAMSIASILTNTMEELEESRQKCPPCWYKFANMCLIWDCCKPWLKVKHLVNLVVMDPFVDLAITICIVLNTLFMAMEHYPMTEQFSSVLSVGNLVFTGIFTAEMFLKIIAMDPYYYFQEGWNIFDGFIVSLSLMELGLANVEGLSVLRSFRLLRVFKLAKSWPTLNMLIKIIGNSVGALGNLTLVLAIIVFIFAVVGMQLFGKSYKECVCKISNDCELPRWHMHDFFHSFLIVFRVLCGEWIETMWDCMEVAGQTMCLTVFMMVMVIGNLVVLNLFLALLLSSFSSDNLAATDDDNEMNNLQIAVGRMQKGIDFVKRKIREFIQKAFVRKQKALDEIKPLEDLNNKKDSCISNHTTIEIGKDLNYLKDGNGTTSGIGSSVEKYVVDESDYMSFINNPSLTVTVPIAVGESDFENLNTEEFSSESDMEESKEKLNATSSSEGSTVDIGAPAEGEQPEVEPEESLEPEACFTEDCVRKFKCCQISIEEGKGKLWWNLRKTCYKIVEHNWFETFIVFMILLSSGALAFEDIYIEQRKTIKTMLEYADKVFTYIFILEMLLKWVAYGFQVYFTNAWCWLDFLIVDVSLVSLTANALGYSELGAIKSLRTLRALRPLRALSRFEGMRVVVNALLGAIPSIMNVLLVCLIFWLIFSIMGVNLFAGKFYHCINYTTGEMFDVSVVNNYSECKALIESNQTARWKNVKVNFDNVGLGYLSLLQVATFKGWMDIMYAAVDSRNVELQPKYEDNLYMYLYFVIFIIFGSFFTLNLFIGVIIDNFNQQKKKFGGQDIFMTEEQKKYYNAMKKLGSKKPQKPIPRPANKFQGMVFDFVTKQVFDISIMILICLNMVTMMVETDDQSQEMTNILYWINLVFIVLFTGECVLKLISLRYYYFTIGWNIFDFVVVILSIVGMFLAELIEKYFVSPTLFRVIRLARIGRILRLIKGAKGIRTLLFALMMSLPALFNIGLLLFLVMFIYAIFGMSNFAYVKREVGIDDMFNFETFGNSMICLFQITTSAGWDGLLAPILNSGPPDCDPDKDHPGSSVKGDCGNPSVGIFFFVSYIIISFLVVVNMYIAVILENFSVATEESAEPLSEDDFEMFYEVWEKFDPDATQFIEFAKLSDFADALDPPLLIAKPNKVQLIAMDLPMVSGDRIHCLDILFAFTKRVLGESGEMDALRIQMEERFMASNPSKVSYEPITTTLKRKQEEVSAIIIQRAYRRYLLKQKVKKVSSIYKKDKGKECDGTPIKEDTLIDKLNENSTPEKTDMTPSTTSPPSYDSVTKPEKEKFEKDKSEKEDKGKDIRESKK", "conditions": "holding -80 mV, 200 ms at -120 mV then test pulse to 0 mV every 2 s; 5 min exposure, cumulative 0.1-100 μM; 0.1% DMSO; pH 7.4; 27°C; n=6", "text": "automated planar patch-clamp, whole-cell peak current on NaV1.2"}, "NaV1.1": {"biological_target": "T2, NaV1.1 (Homo sapiens, UniProt P35498)", "T2 construct": "gene SCN1A; full-length channel, stably expressed in HEK293T cells; beta subunits not mentioned", "conditions": "holding -80 mV, 200 ms at -120 mV then test pulse to 0 mV every 2 s; 5 min exposure, cumulative 0.1-100 μM; 0.1% DMSO; pH 7.4; 27°C; n=9", "text": "automated planar patch-clamp, whole-cell peak current on NaV1.1"}, "NaV1.7": {"biological_target": "T3, NaV1.7 (Homo sapiens, UniProt Q15858)", "T3 construct": "gene SCN9A; full-length channel, stably expressed in HEK293T cells; beta subunits not mentioned", "T3 sequence (Q15858 whole entry)": "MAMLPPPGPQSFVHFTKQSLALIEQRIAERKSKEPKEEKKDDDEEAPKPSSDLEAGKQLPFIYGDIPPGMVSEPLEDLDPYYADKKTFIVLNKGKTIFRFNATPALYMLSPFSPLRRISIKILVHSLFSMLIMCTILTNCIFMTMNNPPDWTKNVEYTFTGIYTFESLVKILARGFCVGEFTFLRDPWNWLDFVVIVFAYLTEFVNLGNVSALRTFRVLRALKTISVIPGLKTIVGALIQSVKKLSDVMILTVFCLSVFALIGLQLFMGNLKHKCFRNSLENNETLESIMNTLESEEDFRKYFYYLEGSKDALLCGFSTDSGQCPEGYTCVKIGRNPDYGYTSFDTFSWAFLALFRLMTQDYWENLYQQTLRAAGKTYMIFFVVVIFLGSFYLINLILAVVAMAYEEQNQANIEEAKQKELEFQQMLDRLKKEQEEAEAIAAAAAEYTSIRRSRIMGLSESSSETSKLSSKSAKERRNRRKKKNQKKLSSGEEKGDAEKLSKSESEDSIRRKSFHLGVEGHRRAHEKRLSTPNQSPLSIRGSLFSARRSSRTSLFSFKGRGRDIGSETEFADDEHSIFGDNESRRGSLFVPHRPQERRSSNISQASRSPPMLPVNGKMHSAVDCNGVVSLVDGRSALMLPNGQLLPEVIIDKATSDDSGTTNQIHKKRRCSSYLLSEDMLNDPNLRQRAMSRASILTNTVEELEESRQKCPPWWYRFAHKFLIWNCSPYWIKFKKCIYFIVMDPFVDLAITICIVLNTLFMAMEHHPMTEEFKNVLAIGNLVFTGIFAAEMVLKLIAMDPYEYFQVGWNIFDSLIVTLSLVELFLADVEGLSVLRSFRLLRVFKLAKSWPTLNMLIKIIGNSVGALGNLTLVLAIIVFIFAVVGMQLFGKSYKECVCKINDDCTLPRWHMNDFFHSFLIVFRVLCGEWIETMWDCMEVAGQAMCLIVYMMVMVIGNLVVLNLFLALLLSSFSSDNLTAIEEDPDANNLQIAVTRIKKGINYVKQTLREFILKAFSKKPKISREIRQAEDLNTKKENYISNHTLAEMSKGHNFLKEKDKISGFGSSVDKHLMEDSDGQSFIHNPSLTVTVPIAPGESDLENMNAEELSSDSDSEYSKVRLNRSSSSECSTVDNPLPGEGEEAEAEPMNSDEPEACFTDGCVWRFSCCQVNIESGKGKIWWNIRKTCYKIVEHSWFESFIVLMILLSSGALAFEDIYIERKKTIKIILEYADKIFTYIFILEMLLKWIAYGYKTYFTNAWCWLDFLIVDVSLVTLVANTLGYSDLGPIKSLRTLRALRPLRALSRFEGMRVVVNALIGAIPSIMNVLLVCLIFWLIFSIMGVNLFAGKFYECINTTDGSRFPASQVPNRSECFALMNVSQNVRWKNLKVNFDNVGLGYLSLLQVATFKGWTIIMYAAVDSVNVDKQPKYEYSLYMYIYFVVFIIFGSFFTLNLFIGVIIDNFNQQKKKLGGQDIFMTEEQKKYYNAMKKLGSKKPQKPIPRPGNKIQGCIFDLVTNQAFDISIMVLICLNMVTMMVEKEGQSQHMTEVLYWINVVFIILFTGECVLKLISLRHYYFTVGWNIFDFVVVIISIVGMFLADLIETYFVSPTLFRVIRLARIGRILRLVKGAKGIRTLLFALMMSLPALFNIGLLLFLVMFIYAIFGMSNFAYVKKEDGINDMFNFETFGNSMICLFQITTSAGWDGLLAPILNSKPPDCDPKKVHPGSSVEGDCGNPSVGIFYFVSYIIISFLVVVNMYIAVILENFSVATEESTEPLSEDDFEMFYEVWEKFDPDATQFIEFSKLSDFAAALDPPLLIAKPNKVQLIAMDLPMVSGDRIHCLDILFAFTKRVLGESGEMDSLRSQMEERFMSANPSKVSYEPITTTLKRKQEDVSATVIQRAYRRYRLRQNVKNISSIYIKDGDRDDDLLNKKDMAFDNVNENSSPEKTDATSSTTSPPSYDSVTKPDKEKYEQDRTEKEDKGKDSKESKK", "conditions": "holding -80 mV, 200 ms at -120 mV then test pulse to 0 mV every 2 s; 5 min exposure, cumulative 0.1-100 μM; 0.1% DMSO; pH 7.4; 27°C; n=7", "text": "automated planar patch-clamp, whole-cell peak current on NaV1.7"}}, "data": [{"compound": "C=C(C)[C@@H]1CCC(C)=C[C@H]1c1c(O)cc(CCCCC)cc1O", "note": "[CBD]", "values": [{"measurement": "IC50", "setting": "NaV1.2", "value": "18.4 ± 2.6", "unit": "µM"}, {"measurement": "IC50", "setting": "NaV1.1", "value": "18.5 ± 2.2", "unit": "µM"}, {"measurement": "IC50", "setting": "NaV1.7", "value": "11.9 ± 2.2", "unit": "µM"}]}]}
